# Test results reported in US20060216295A1, “Methods of identifying therapeutic targets for the treatment of vulvovaginal atrophy” (Wyeth, priority 2005, published 2006).
# Read-outs that look alike come from different tables or passages of the source.
# B1: NODDD: peptide corresponding to amino acids 343417 of HIF1α (N-terminal oxygen dependent degradation domain), FIG. 3 (peptide)
# chain: SGIIQHDLIFSLQQTECVLKPVESSDMKMTQLFTKVESEDTSSLFDKLKKEPDALTLLAPAAGDTIISLDFGSND
# modifications: NODDD sequence from Hif1a (amino acids 343-417)
# B2: Betacellulin: mouse betacellulin (Asp32-Gln118) generated in E. coli by R&D Systems (catalog # 1025-CE); member of the EGF family (protein)
# chain: DGNTTRTPETNGSLCGAPGENCTGTTPRQKVKTHFSRCPKQYKHYCIHGRCRFVVDEQTPSCICEKGYFGARCERVDLFYLQQDRGQ
# modifications: Mouse betacellulin peptide (asp32-gln118)
# notes: mouse betacellulin (Asp32-Gln118) generated in E. coli by R&D Systems (catalog # 1025-CE); member of the EGF family
# Tests used:
# [1] = tested on: vaginal epithelium; assay type: in vivo, rat; conditions: for whether the compound mimics the action of 17β-estradiol in the vagina: ovariectomized rats treated intravaginally, Example 3; for effect on the rat vaginal epithelium, in words: ovariectomized rats; for histological change of the vaginal epithelial layer compared to vehicle: rats, intravaginal dosing, Example 2
# Procedure: FIG. 4 represents H&E stained cross-sections of rat vagina after 5 days of intravaginal treatment with 100 nM betacellulin in 2% carbomer vehicle.
# These histologic changes are the hallmark of a vaginal estrogenic response. Tables 2 and 3 detail the studies performed with mersalyl and betacellulin. The body of the table indicates the number of positive histological changes over the number of samples evaluated.
# Table 4 includes the studies performed with the PHD/FIH non-specific inhibitor DMOG, whereas Table 5 is the studies performed with 2,4-DPD.
# Table 6 includes the studies performed with the FIH specific inhibitor 3,4-dihydroxybenzoate (3,4-DHB), whereas Table 7 outlines the studies performed with N-oxalyl-D-alanine (NODA).
# [2] = tested on: vaginal epithelium; assay type: in vivo, rat; conditions: intravaginal; 50 nM 17β-estradiol, 10 nM recombinant mouse betacellulin, 1 μM Mersalyl; 2% carbomer vehicle
# [3] = tested on: HIF1α transcription; conditions: cited from earlier work
# [4] = tested on: HIF-regulated transcripts; conditions: in vitro; cited from earlier work
# [5] = tested on: Betacellulin; test: RNA expression analysis (Affymetrix RAE230A/B arrays) of vaginal vault of ovariectomized rats after 17β-estradiol; assay type: in vivo, rat; conditions: Betacellulin mRNA, single dose 20 μg/kg 17β-estradiol subcutaneously
# Excerpt: RNA was harvested from the entire vaginal vault at each time point and was subjected to RNA expression analysis. Five micrograms of total RNA were used to generate biotin labeled cRNA using an oligo T7 primer in a reverse transcription reaction followed by in vitro transcription reaction with biotin labeled UTP and CTP. Ten micrograms of cRNA were fragmented and hybridized to RAE230A and RAE230B arrays (Affymetrix, Santa Clara, Calif.). Hybridized arrays were stained according to manufacturer's protocols on a Fluidics Station 450 and scanned on an Affymetrix scanner 3000. All array images were visually inspected for defects and quality. Signal values were determined using Gene Chip Operating System 1.0 (GCOS, Affymetrix). For each array, all probe sets were normalized to a mean signal intensity value of 100. The default GCOS statistical values were used for all analyses. Signal values and absolute detection calls were imported into Genesis 2.0 (GeneLogic, Gaithersburg, Md.) for analysis.
# A gene was considered to be detectible if the mean expression in either the treated or untreated group was 50 signal units and the percentage of samples with a Present (P) call as determined by GCOS default settings was greater than or equal to 25%. A gene was considered to be regulated if the difference between the treated and untreated groups met the following criteria: (1) the gene had to be detected in at least 25% of the samples of at least one of the groups, (2) the fold change between was at least 1.7, and (3) the p-value based on a T-test had to be ≦0.01. Nine hundred fifty-nine qualifiers on the RAE230A array and 707 qualifiers on the RAE230B array met these conditions.
# Based on the time course of response and the biological function associated with them, HIF1α and betacellulin were selected as candidate targets for treatment of vulvovaginal atrophy. These proteins were selected for further study because they were regulated by estradiol after 6 hours of treatment and thus can be expected to be at the top of the estrogenic signaling cascade.
molecule,measurement,setting,value
"COC(=O)CNC(=O)C(=O)OC [DMOG, N-(methoxyooxoacetyl)-glycine methyl ester]",number of positive histological responses/number of samples evaluated,"[1]; OVX rat, DMOG 1 μM intravaginal, Study 2",0/4
same,number of positive histological responses/number of samples evaluated,"[1]; OVX rat, DMOG 10 μM intravaginal, Study 1",3/3
same,number of positive histological responses/number of samples evaluated,"[1]; OVX rat, DMOG 10 μM intravaginal, Study 2",2/3
same,number of positive histological responses/number of samples evaluated,"[1]; OVX rat, DMOG 10 μM intravaginal, Study 3",2/4
same,number of positive histological responses/number of samples evaluated,"[1]; OVX rat, DMOG 100 μM intravaginal, Study 1",0/3
same,number of positive histological responses/number of samples evaluated,"[1]; OVX rat, DMOG 1 mM intravaginal, Study 1",0/3
same,number of positive histological responses/number of samples evaluated,"[1]; OVX rat, DMOG 1 mM intravaginal, Study 3",1/4
same,whether the compound mimics the action of 17β-estradiol in the vagina,[1],variable results
"COC(CNC(=O)c1ccccc1OCC(=O)O)[CH2][Hg][OH] (centres unmarked) [Mersalyl, mersalyl]",number of positive histological changes over the number of samples evaluated,"[1]; Mersalyl dose 0.1 μM intravaginal, Study 2",2/4
same,number of positive histological changes over the number of samples evaluated,"[1]; Mersalyl dose 0.1 μM intravaginal, Study 3",4/4
same,number of positive histological changes over the number of samples evaluated,"[1]; Mersalyl dose 0.1 μM intravaginal, Study 4",4/4
same,number of positive histological changes over the number of samples evaluated,"[1]; Mersalyl dose 1 μM intravaginal, Study 1",3/3
same,number of positive histological changes over the number of samples evaluated,"[1]; Mersalyl dose 1 μM intravaginal, Study 2",4/4/
same,number of positive histological changes over the number of samples evaluated,"[1]; Mersalyl dose 1 μM intravaginal, Study 3",2/3
same,number of positive histological changes over the number of samples evaluated,"[1]; Mersalyl dose 1 μM intravaginal, Study 4",4/4/
same,number of positive histological changes over the number of samples evaluated,"[1]; Mersalyl dose 10 μM intravaginal, Study 1",0/3
same,number of positive histological changes over the number of samples evaluated,"[1]; Mersalyl dose 10 μM intravaginal, Study 2",0/4
same,number of positive histological changes over the number of samples evaluated,"[1]; Mersalyl dose 100 μM intravaginal, Study 1",0/3
same,"effect on the rat vaginal epithelium, in words",[1],expansion of the vaginal epithelium in a manner similar to treatment with 17β-estradiol
same,histological change of the vaginal epithelial layer compared to vehicle,[1],clear thickening and differentiation of the vaginal epithelial layer
same,"histology of rat vagina (H&E stained cross-sections) compared to vehicle, FIG. 1",[2],positive effect
same,upregulation of HIF1α transcription,[3],upregulate HIF1α transcription
"CCOC(=O)c1ccnc(C(=O)OCC)c1 [2,4-DPD, 2,4-pyridinedicarboxylic acid, diethyl ester]",number of positive histological responses/number of samples evaluated,"[1]; OVX rat, 2,4-DPD 0.1 μM intravaginal, Study 2",0/4
same,number of positive histological responses/number of samples evaluated,"[1]; OVX rat, 2,4-DPD 1 μM intravaginal, Study 2",1/4
same,number of positive histological responses/number of samples evaluated,"[1]; OVX rat, 2,4-DPD 10 μM intravaginal, Study 1",0/4
same,number of positive histological responses/number of samples evaluated,"[1]; OVX rat, 2,4-DPD 10 μM intravaginal, Study 2",1/3
same,number of positive histological responses/number of samples evaluated,"[1]; OVX rat, 2,4-DPD 10 μM intravaginal, Study 3",1/4
same,whether the compound mimics the action of 17β-estradiol in the vagina,[1],variable results
"O=C(O)c1ccc(O)c(O)c1 [3,4-DHB, 3,4-dihydroxybenzoate]",number of positive histological responses/number of samples evaluated,"[1]; OVX rat, 3,4-DHB 10 μM intravaginal, Study 1",1/4
same,number of positive histological responses/number of samples evaluated,"[1]; OVX rat, 3,4-DHB 100 μM intravaginal, Study 1",0/4
same,number of positive histological responses/number of samples evaluated,"[1]; OVX rat, 3,4-DHB 1 mM intravaginal, Study 1",0/4
same,number of positive histological responses/number of samples evaluated,"[1]; OVX rat, 3,4-DHB 1 mM intravaginal, Study 2",0/4
same,number of positive histological responses/number of samples evaluated,"[1]; OVX rat, 3,4-DHB 1 mM intravaginal, Study 3",0/3
same,number of positive histological responses/number of samples evaluated,"[1]; OVX rat, 3,4-DHB 10 mM intravaginal, Study 1",4/4
same,number of positive histological responses/number of samples evaluated,"[1]; OVX rat, 3,4-DHB 10 mM intravaginal, Study 2",1/4
same,number of positive histological responses/number of samples evaluated,"[1]; OVX rat, 3,4-DHB 10 mM intravaginal, Study 3",2/3
same,number of positive histological responses/number of samples evaluated,"[1]; OVX rat, 3,4-DHB 10 mM intravaginal, Study 4",1/3
same,whether the compound mimics the action of 17β-estradiol in the vagina,[1],variable results
"CODDD: peptide corresponding to amino acids 549-582 of HIF1α (C-terminal oxygen dependent degradation domain), FIG. 3",upregulation of HIF-regulated transcripts,[4],capable of upregulating HIF-regulated transcripts in vitro
"C[C@@H](NC(=O)C(=O)O)C(=O)O [NODA, N-oxalyl-D-alanine]",number of positive histological responses/number of samples evaluated,"[1]; OVX rat, NODA 10 μM intravaginal, Study 1",1/4
same,number of positive histological responses/number of samples evaluated,"[1]; OVX rat, NODA 10 μM intravaginal, Study 2",1/3
same,number of positive histological responses/number of samples evaluated,"[1]; OVX rat, NODA 10 μM intravaginal, Study 3",0/3
same,number of positive histological responses/number of samples evaluated,"[1]; OVX rat, NODA 100 μM intravaginal, Study 1",0/4
same,number of positive histological responses/number of samples evaluated,"[1]; OVX rat, NODA 100 μM intravaginal, Study 2",0/3
same,number of positive histological responses/number of samples evaluated,"[1]; OVX rat, NODA 100 μM intravaginal, Study 3",0/3
same,number of positive histological responses/number of samples evaluated,"[1]; OVX rat, NODA 1 mM intravaginal, Study 1",0/4
same,number of positive histological responses/number of samples evaluated,"[1]; OVX rat, NODA 1 mM intravaginal, Study 2",0/3
same,number of positive histological responses/number of samples evaluated,"[1]; OVX rat, NODA 1 mM intravaginal, Study 3",1/3
same,number of positive histological responses/number of samples evaluated,"[1]; OVX rat, NODA 1 mM intravaginal, Study 4",1/4
same,number of positive histological responses/number of samples evaluated,"[1]; OVX rat, NODA 10 mM intravaginal, Study 1",3/4
same,number of positive histological responses/number of samples evaluated,"[1]; OVX rat, NODA 10 mM intravaginal, Study 2",0/3
same,number of positive histological responses/number of samples evaluated,"[1]; OVX rat, NODA 10 mM intravaginal, Study 3",1/3
same,number of positive histological responses/number of samples evaluated,"[1]; OVX rat, NODA 10 mM intravaginal, Study 4",0/4
same,whether the compound mimics the action of 17β-estradiol in the vagina,[1],variable results
C[C@]12CC[C@@H]3c4ccc(O)cc4CC[C@H]3[C@@H]1CC[C@@H]2O [17β-estradiol],Fold Change Over Vehicle,[5]; 6 hour,+2.9
same,Fold Change Over Vehicle,[5]; 72 hour,+2.8
same,Fold Change Over Vehicle,[5]; 120 hour (5 day),+1.6
same,"histology of rat vagina (H&E stained cross-sections) compared to vehicle, FIG. 1",[2],positive effect
B1,upregulation of HIF-regulated transcripts,[4],capable of upregulating HIF-regulated transcripts in vitro
B2,number of positive histological changes over the number of samples evaluated,"[1]; Betacellulin dose 10 nM intravaginal, Study 1",3/3
same,number of positive histological changes over the number of samples evaluated,"[1]; Betacellulin dose 10 nM intravaginal, Study 2",0/4
same,number of positive histological changes over the number of samples evaluated,"[1]; Betacellulin dose 10 nM intravaginal, Study 3",3/3
same,number of positive histological changes over the number of samples evaluated,"[1]; Betacellulin dose 100 nM intravaginal, Study 2",3/4
same,number of positive histological changes over the number of samples evaluated,"[1]; Betacellulin dose 100 nM intravaginal, Study 3",2/3
same,number of positive histological changes over the number of samples evaluated,"[1]; Betacellulin dose 1 μM intravaginal, Study 2",2/4
same,"effect on the rat vaginal epithelium, in words",[1],mimics the effects of estrogen on the rat vaginal epithelium
same,histological change of the vaginal epithelial layer compared to vehicle,[1],clear thickening and differentiation of the vaginal epithelial layer
same,"histology of rat vagina (H&E stained cross-sections) compared to vehicle, FIG. 1",[2],positive effect
